The values below come from US8802720B2, “Acylamino-substituted fused cyclopentanecarboxylic acid derivatives and their use as pharmaceuticals” (SANOFI, priority 2008, dated 2014).

human Edg-2 receptor (LPA1 receptor), sequence (Q92633 whole entry): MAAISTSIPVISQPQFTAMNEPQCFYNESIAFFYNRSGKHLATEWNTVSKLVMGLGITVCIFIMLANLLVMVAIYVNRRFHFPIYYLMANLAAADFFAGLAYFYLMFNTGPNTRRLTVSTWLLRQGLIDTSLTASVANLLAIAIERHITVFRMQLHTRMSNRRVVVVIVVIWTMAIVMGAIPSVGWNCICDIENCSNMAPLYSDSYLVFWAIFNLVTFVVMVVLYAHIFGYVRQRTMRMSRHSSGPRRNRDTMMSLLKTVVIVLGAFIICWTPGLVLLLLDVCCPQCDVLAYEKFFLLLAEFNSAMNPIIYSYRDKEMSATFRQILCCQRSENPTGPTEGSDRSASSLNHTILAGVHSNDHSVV

The experiment has as its target human Edg-2 receptor (LPA1 receptor) (Homo sapiens, UniProt Q92633). Description: Edg-2 receptor inhibition by FLIPR calcium fluorescence measurement (LPA-mediated calcium liberation). The settings on record: CHO cells stably overexpressing human Edg-2 receptor; LPA 18:1 100 nM; fluo-4 fluorescence; triplicate; read-out: Inhibitory concentrations IC50 for inhibition of the Edg-2 receptor. The class given is cell-based. On the procedure: A) Determination of Edg-2 Receptor Inhibition by Fluorescence Imaging Plate Reader (FLIPR) Measurements
The inhibition of the Edg-2 receptor (LPA1 receptor) by the compounds of the invention was quantified by the inhibitory effect on the LPA-mediated calcium liberation in a cell-based calcium fluorescence assay by use of Chinese hamster ovarian (CHO) cells in which the human Edg-2 receptor was stably overexpressed (FIp-In system, Invitrogen). […] Changes in intracellular calcium were determined by fluorescence measurement with the calcium-sensitive dye fluo-4 (Invitrogen) in a fluorescence imaging plate reader (FLIPR, […]).
CHO cells stably overexpressing the human Edg-2 receptor were seeded (40.000 per well) in black clear-bottomed poly-D-lysine-coated 96 well plates (Becton Dickinson, Biocoat cellware) approximately 18-24 h prior to the experiments. Cells were grown in an incubator at 37° C., 5% carbon dioxide and 95% humidity in cell culture media based on F-12 glutamax media (Gibco, #31765) supplemented with 1% (vol/vol) penicilline/streptomycine (PAN, #P06-07100), 10% (vol/vol) fetal calf serum (FCS, PAA, #A15-151) and hygromycin B (Invitrogen, #10687-010) 300 mg/l (final concentrations).
Prior to the FLIPR experiment, cells were loaded with fluo-4 acetoxymethyl ester (fluo-4 AM, Invitrogen, #F14202) for 60 min in an incubator at 37° C., 5% carbon dioxide and 95% humidity in dye-loading buffer consisting of Hanks' Balanced Salt Solution (HBSS, Invitrogen, #14065049) supplemented with fluo-4 AM at 2 μM (all data given for final concentration), Pluronic® F-127 0.05% (vol/vol) (Invitrogen, #P-3000 MP), HEPES 20 mM (Gibco, #15630), probenecid 2.5 mM (Sigma, #P-8761) and bovine serum albumin 0.05% (BSA, Sigma, #A-6003), adjusted to pH 7.5 with sodium hydroxide. During cell loading, fluo-4 AM is cleaved by intracellular esterase resulting in trapping of the dye fluo-4 within the cells. Loading was terminated by washing of the cells in a cell washer (Tecan Power washer) three times with the buffer specified afore but without fluo-4 AM and BSA. This latter buffer was also used as the buffer in the subsequent cell fluorescence measurements.
The dye-loaded and washed cells were pre-incubated for approximately 5 min with various concentrations of the test compound added as a solution in DMSO (0.3% vol/vol maximum final concentration of DMSO), or with DMSO in the respective concentration only (positive control). Subsequent addition of LPA (18:1, 1-oleoyl-sn-glycerol 3-phosphate; 100 nM final concentration) leads to liberation of intracellular calcium from internal stores resulting in a large transient increase of the fluo-4 fluorescence signal which was monitored over approximately 3 min. The percent inhibition caused by the test compound was determined from the maximum fluorescence response after LPA addition to cells pre-incubated with the compound as compared to the maximum fluorescence response after LPA addition to cells pre-incubated with DMSO only. All fluorescence values were corrected for the baseline fluorescence values obtained with cells which were pre-incubated with DMSO only and were not treated with LPA (baseline control). All measurements were performed in triplicate. From the percent inhibitions the inhibitory concentration IC50 was determined.
Regarding `COc1ccc(C(=O)NC2(C(=O)O)Cc3ccccc3C2)cc1Cc1ccccc1C` [Example 242, 2-[4-Methoxy-3-(2-methyl-benzyl)-benzoylamino]-indane-2-carboxylic acid], the IC50 lay within 100 to 1000 nM.
In the case of `CCS(=O)(=O)c1cccc(-c2cc(C(=O)NC3(C(=O)O)Cc4ccccc4C3)ccc2OC)c1` [Example 312, 2-[(3′-ethanesulfonyl-6-methoxy-biphenyl-3-carbonyl)-amino]-indane-2-carboxylic acid], the IC50 was 100 to 1000 nM.
Take `COc1ccc(C(=O)N(C)C2(C(=O)O)Cc3ccccc3C2)cc1OCCc1cccc(C)c1` [Example 108, 2-{[4-Methoxy-3-(2-m-tolyl-ethoxy)-benzoyl]-methyl-amino}-indane-2-carboxylic acid]: the IC50 lay in the range of 100 to 1000 nM.
With `COc1ccc(C(=O)NC2(C(=O)O)Cc3ccccc3C2)cc1-c1cccc(C(C)C)c1` [Example 196, 2-[(3′-Isopropyl-6-methoxy-biphenyl-3-carbonyl)-amino]-indane-2-carboxylic acid], the IC50 is less than 100 nM.
Next, `Cc1cccc(CCOc2cc(C(=O)NC3(C(=O)O)Cc4ccccc4C3)ccc2OCCF)c1` [Example 268]: less than 100 nM; `COc1ccc(C(=O)NC2(C(=O)O)Cc3ccccc3C2)cc1OCCC1CCCC1` [Example 150]: 1000 to 30000 nM; `CCN(CC)CCCOc1cc(C(=O)NC2(C(=O)O)Cc3ccccc3C2)ccc1OC` [Example 49]: 1000 to 30000 nM.
Next, `COc1ccc(C(=O)NC2(C(=O)O)Cc3ccccc3C2)cc1NCc1cccc(Cl)c1` [Example 123]: 1000 to 30000 nM; `CC[C@H](COc1cc(C(=O)NC2(C(=O)O)Cc3ccccc3C2)ccc1OC)N1Cc2ccccc2C1` [Example 83]: 1000 to 30000 nM.
The result for `COc1ccc(C(=O)NC2(C(=O)O)Cc3ccccc3C2)cc1NCC(C)c1ccccc1` (stereo not drawn) [Example 124] reads 100 to 1000 nM; that for `COc1ccc(C(=O)NC2(C(=O)O)Cc3ccccc3C2)cc1-c1cc(Cl)ccc1C` [Example 314], less than 100 nM; that for `COc1cc(C(=O)NC2(C(=O)O)Cc3ccccc3C2)ccc1OCCc1cccc(Cl)c1` [Example 161, 2-{4-[2-(3-Chloro-phenyl)-ethoxy]-3-methoxy-benzoylamino}-indane-2-carboxylic acid], 1000 to 30000 nM.
As to `COc1ccc(C(=O)NC2(C(=O)O)Cc3ccccc3C2)cc1-c1ccsc1Cl` [Example 329], the IC50 was 1000 to 30000 nM.
On to `CCc1cccc(CCOc2cc(C(=O)NC3(C(=O)O)Cc4ccccc4C3)ccc2OC)c1` [Example 23], for which the IC50 was less than 100 nM.
The result for `COc1ccc(C(=O)NC2(C(=O)O)Cc3ccccc3C2)cc1-c1ccc(C(C)(C)C)cc1` [Example 201] reads 1000 to 30000 nM.
Next, `COc1ccc(C(=O)NC2(C(=O)O)Cc3ccccc3C2)cc1-c1cccc(NC(C)=O)c1` [Example 287]: 100 to 1000 nM.
The result for `COCCOCCOc1cc(C(=O)NC2(C(=O)O)Cc3ccccc3C2)ccc1OC` [Example 28] reads 1000 to 30000 nM; that for `CCOc1ccc(COc2cc(C(=O)NC3(C(=O)O)Cc4ccccc4C3)ccc2OC)cc1` [Example 29], 1000 to 30000 nM.
`COc1ccc(C(=O)NC2(C(=O)O)Cc3ccccc3C2)cc1-c1cncc(C#N)c1` [Example 284]: the IC50 was less than 100 nM.
The result for `CC(=O)c1sc(C(=O)NC2(C(=O)O)Cc3ccccc3C2)cc1OCCc1cccc(C)c1` [Example 102, 2-{[5-Acetyl-4-(2-m-tolyl-ethoxy)-thiophene-2-carbonyl]-amino}-indane-2-carboxylic acid] reads 100 to 1000 nM; that for `COc1ccc(C(=O)NC2(C(=O)O)Cc3ccccc3C2)cc1-c1cc(Cl)cc(C(F)(F)F)c1` [Example 347], less than 100 nM; that for `COc1ccc(C(=O)NC2(C(=O)O)Cc3ccccc3C2)cc1OCc1c(C)noc1C` [Example 88], 1000 to 30000 nM.
Regarding `COc1ccc(C(=O)NC2(C(=O)O)Cc3ccccc3C2)cc1-c1cccc(Cl)c1Cl` [Example 293], the IC50 is less than 100 nM.
The result for `COc1ccc(C(=O)NC2(C(=O)O)Cc3ccccc3C2)cc1OCc1cc(-c2csc(C)n2)on1` [Example 74] reads 1000 to 30000 nM; that for `COc1ccc(C(=O)NC2(C(=O)O)Cc3ccccc3C2)cc1OCCc1ccc(C#N)cc1` [Example 26], 1000 to 30000 nM.
Next, `COc1ccc(CCOc2cc(C(=O)NC3(C(=O)O)Cc4ccccc4C3)ccc2OC)cc1` [Example 137]: 1000 to 30000 nM; `CCCOc1ccc(-c2cc(C(=O)NC3(C(=O)O)Cc4ccccc4C3)ccc2OC)cc1Cl` [Example 321]: 1000 to 30000 nM.
The result for `COc1ccc(C(=O)NC2(C(=O)O)Cc3ccccc3C2)cc1OS(=O)(=O)c1cccc(C)c1` [Example 111, 2-[3-(toluene-3-sulfonyloxy)-4-methoxy-benzoylamino]-indane-2-carboxylic acid] reads 1000 to 30000 nM; that for `Cc1cccc(CCOc2cc(C(=O)NC3(C(=O)O)Cc4ccccc4C3)ccc2C#N)c1` [Example 168, 2-[4-Cyano-3-(2-m-tolyl-ethoxy)-benzoylamino]-indane-2-carboxylic acid], less than 100 nM.
Regarding `Cc1cccc(CCOc2cc(C(=O)NC3(C(=O)O)Cc4ccccc4C3)ccc2C)c1` [Example 129], the IC50 fell in the range of 100 to 1000 nM.
The result for `COc1ccc(C(=O)NC2(C(=O)O)Cc3ccccc3C2)cc1C(=O)COc1cccc(C)c1` [Example 113, 2-[4-Methoxy-3-(2-m-tolyloxy-acetyl)-benzoylamino]-indane-2-carboxylic acid] reads 1000 to 30000 nM; that for `COc1ccc(C(=O)NC2(C(=O)O)Cc3ccccc3C2)cc1OCCc1cccs1` [Example 147], 100 to 1000 nM.
As for `COc1ccc(C(=O)NC2(C(=O)O)Cc3ccccc3C2)cc1C(O)COc1cccc(C)c1` (stereo not drawn) [Example 114, 2-[3-(1-Hydroxy-2-m-tolyloxy-ethyl)-4-methoxy-benzoylamino]-indane-2-carboxylic acid], the IC50 was 1000 to 30000 nM.
Next, `COc1ccc(C(=O)NC2(C(=O)O)Cc3ccccc3C2)cc1OCCc1noc2ccccc12` [Example 354]: 1000 to 30000 nM.
With `COc1ccc(C(=O)NC2(C(=O)O)Cc3cc(Cl)sc3C2)cc1OCCc1cccc(C)c1` (stereo not drawn) [Example 100, 2-Chloro-5-[4-methoxy-3-(2-m-tolyl-ethoxy)-benzoylamino]-5,6-dihydro-4H-cyclopenta[b]thiophene-5-carboxylic acid], the IC50 is less than 100 nM.
Regarding `COc1ncc(C(=O)NC2(C(=O)O)Cc3ccccc3C2)cc1OCCc1cc(C)ccc1F` [Example 274, 2-({5-[2-(2-Fluoro-5-methyl-phenyl)-ethoxy]-6-methoxy-pyridine-3-carbonyl}-amino)-indane-2-carboxylic acid], the IC50 was less than 100 nM.
The result for `COc1ccc(C(=O)NC2(C(=O)O)Cc3ccccc3C2)cc1NC(=O)c1cccc(F)c1` [Example 120, 2-[3-[3-fluoro-benzoylamino)-4-methoxy-benzoylamino)-indane-2-carboxylic acid] reads 1000 to 30000 nM.
Next, `COc1ccc(C(=O)NC2(C(=O)O)Cc3ccccc3C2)cc1-c1cc(C)c(OC)c(C)c1` [Example 294]: less than 100 nM.
With `COc1c(F)cc(C(=O)NC2(C(=O)O)Cc3ccccc3C2)cc1-c1cccc(NS(=O)(=O)N(C)C)c1` [Example 361], the IC50 was less than 100 nM.
